Values joined by “and” are separate entries in the source; they are usually repeats but may differ in a detail not shown here. Identical values can stand only once.
Experiments:
kidney of rats = assay: Renal pathology in rats co-administered with quercetin-3′-O-phosphate and tacrolimus; format: in vivo, rat; settings: tacrolimus (Prograf) 0.5 mg/kg and inert vehicle, 25 days
Description: Tissue is removed from the kidney of rats treated with tacrolimus (Prograf®) at 0.5 mg/kg and inert vehicle, and from rats treated with tacrolimus (Prograf®) at 0.5 mg/kg and quercetin-3′-O-phosphate (Q-Phosphate) at 11 mg/kg, 28 mg/kg, and at 114 mg/kg for 25 days. […] The tissue from rats treated with Q-Phosphate and tacrolimus show no vacuoles.

rats = assay: Blood glucose levels in rats co-administered with quercetin-3′-O-phosphate and tacrolimus; format: in vivo, rat; settings: for Blood glucose, Mean change from all vehicle control / Blood glucose, Mean change from Day 1: Prograf 0.5 mg/kg i.p. + Vehicle 1; for Blood glucose, Mean: Prograf 0.5 mg/kg i.p. Day 1 to Day 25 + Vehicle 1, 5 rats; for Blood glucose, individual rats: Prograf 0.5 mg/kg i.p. once daily Day 1 to Day 25 + Vehicle 1 Day 11 to Day 25
Description: One set of 5 rats is treated from day 1 to day 25 with inert vehicle 2 intraperitoneally and treated from day 11 to day 25 with inert vehicle 1 intraperitoneally. […] A third set 5 of rats is treated from day 1 to day 25 with tacrolimus (Prograf®) intraperitoneally at 0.5 mg/kg, and treated from day 11 to day 25 intraperitoneally with quercetin-3′-O-phosphate (Q-Phosphate) at 114 mg/kg. The blood glucose level in the rats is measured on days 1, 10, 15, 20, and 25.

[1] = in vivo; cited from earlier work

C=CC[C@@H]1/C=C(\C)C[C@H](C)C[C@H](OC)[C@H]2O[C@@](O)(C(=O)C(=O)N3CCCC[C@H]3C(=O)O[C@H](/C(C)=C/[C@@H]3CC[C@@H](O)[C@H](OC)C3)[C@H](C)[C@@H](O)CC1=O)[C@H](C)C[C@@H]2OC [Prograf ®, tacrolimus, reference compound]
vacuolation of kidney tissue (kidney of rats): significant vacuolation | Blood glucose, Mean change from all vehicle control (rats; Day 1): -0.10 g/L | Blood glucose, Mean (rats; Day 1): 1.27 g/L | Blood glucose, individual rats (rats; Day 1): 1.16 g/l (2×) and 1.34 g/l and 1.22 g/l and 1.47 g/l | Blood glucose, Mean change from Day 1 (rats; Day 10): +0.22 g/l | Blood glucose, Mean change from all vehicle control (rats; Day 10): +0.23 g/l | Blood glucose, Mean (rats; Day 10): 1.49 g/L | Blood glucose, individual rats (rats; Day 10): 1.30 g/L and 1.39 g/L and 1.40 g/L and 1.09 g/L and 2.25 g/L | Blood glucose, Mean change from Day 1 (rats; Day 15): +1.27 g/l | Blood glucose, Mean change from all vehicle control (rats; Day 15): +1.27 g/l | Blood glucose, Mean (rats; Day 15): 2.54 g/L | Blood glucose, individual rats (rats; Day 15): 3.72 g/L and 1.67 g/L and 2.31 g/L and 1.97 g/L and 3.02 g/L | Blood glucose, Mean change from Day 1 (rats; Day 20): +1.66 g/l | Blood glucose, Mean change from all vehicle control (rats; Day 20): +1.81 g/l | Blood glucose, Mean (rats; Day 20): 2.93 g/L | Blood glucose, individual rats (rats; Day 20): 2.79 g/L and 3.70 g/L and 2.97 g/L and 2.41 g/L and 2.77 g/L | Blood glucose, Mean change from Day 1 (rats; Day 25): +1.28 g/l | Blood glucose, Mean change from all vehicle control (rats; Day 25): +1.38 g/l | Blood glucose, Mean (rats; Day 25): 2.55 g/L | Blood glucose, individual rats (rats; Day 25): 0.97 g/L and 3.16 g/L and 1.69 g/L and 2.98 g/L and 3.96 g/L

O=c1c(O)c(-c2ccc(O)c(O)c2)oc2cc(O)cc(O)c12 [quercetin aglycone, quercetin]
serum half-life [1]: 19 to 25 h

— US7947733B2, “Phosphorylated pyrone analogs and methods” (Limerick BioPharma, priority 2007, dated 2011)
